Measured values: patent US7893288B2, “Poly-halogenated triazapentadiene compositions” (Board of Regents, The University of Texas System, priority 2007, dated 2011)
In brackets after ≈: the same amount, converted by molar mass. Several values for one entry are separate records, joined by “and”; a condition that tells them apart may be missing. Equal entries are not always repeated.

Columns and labels:
Assay type in all cases: cell-based
Escherichia coli HB101 [1] = assay: Minimum inhibitory concentration in LB broth, E. coli; conditions: for Relative to AgNO3: efficacy per mole from MIC values;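 for all read-outs here: broth dilution MIC, test compounds first taken up in DMSO, then serially diluted in LB medium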
Excerpt: (§1) For MIC assessment, compounds were initially dissolved in DMSO and serial dilutions of soluble compounds were made in LB broth.

Bacillus subtilis W168 [2] = assay: Minimum inhibitory concentration in LB broth, B. subtilis; conditions: for Relative to AgNO3: efficacy per mole from MIC values
Excerpt: as §1

[3] = test system: Gram-positive bacteria (e.g., S. aureus and B. subtilis); assay: Growth inhibition of Gram-positive bacteria, summary of TABLES 6-19
Procedure: The new class of fluorinated triazapentadiene compounds with and without metal complexation as described herein were analyzed for antibacterial activity against several bacterial strains (both Gram positive and Gram negative). Methods for antimicrobial analysis included a modified Kirby-Bauer method and a determination of their minimum inhibitory concentrations. In brief, the modified Kirby-Bauer method relied on placement of a filter disk impregnated with a desired compound on a solid growth medium. Bacteria were grown to a confluent lawn and the extent of growth inhibition was measured (e.g., as an extent/percentage of a clear zone on the disk and/or solid medium).
Filter disks were provided as sterile filter paper (about 6 mm in diameter) and spotted with 20 μL of a selected compound. Each compound was initially dissolved in dimethylsulfoxide (DMSO); any subsequent dilutions were also made in DMSO. Each filter was placed on an LB agar plate spread with 100 μL of a bacterial culture that had been grown overnight in suitable LB broth. Plates were incubated overnight at 37° C., after which, the extent of growth inhibition around each filter disk was measured. Bacterial strains included Staphylococcus aureus (ATCC 25923), Pseudomonas aeruginosa PAO1, Bacillus subtilis W168 and Escherichia coli HB101. […]

[4] = test system: Staphylococcus aureus (ATCC 25923); assay: Minimum inhibitory concentration in LB broth, S. aureus; conditions: for Relative to AgNO3: efficacy per mole from MIC values
Bacillus subtilis W168 [5] = assay: Disk sensitivity test (modified Kirby-Bauer), B. subtilis;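 note: Compound-loaded filter disks on LB agar plates seeded with a bacterial lawn, plates held overnight at 37 °C, then the clear zone around each disk measured, compounds in DMSO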
Escherichia coli HB101 [6] = assay: Disk sensitivity test (modified Kirby-Bauer), E. coli;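 note: filter disk loaded with compound in DMSO laid on an LB agar bacterial lawn, kept overnight at 37 °C, then the inhibition zone around the disk is measured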
[7] = test system: Pseudomonas aeruginosa PAO1; assay: Disk sensitivity test (modified Kirby-Bauer), P. aeruginosa;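 note: Compound-loaded filter disks on LB agar lawns, DMSO as solvent, zone of inhibition around each disk read after overnight incubation at 37 °C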
[8] = test system: Staphylococcus aureus (ATCC 25923); assay: Disk sensitivity test (modified Kirby-Bauer), S. aureus;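 note: Compound-loaded filter disks on LB agar plates seeded with a confluent bacterial lawn, compound dissolved in DMSO, plates kept overnight at 37 °C, then inhibition zone around disk measured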
[9] = test system: Pseudomonas aeruginosa PAO1; assay: Minimum inhibitory concentration in LB broth, P. aeruginosa; conditions: for Relative to AgNO3: efficacy per mole from MIC values
Excerpt: as §1

[10] = test system: Gram positive and Gram negative bacteria; assay: Antimicrobial activity, summary of TABLES 16-18
Procedure, shortened: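 Compounds, with or without metal complexation, were tested by modified Kirby-Bauer disk diffusion on confluent lawns, scoring the extent of clear-zone growth inhibition. For MIC, DMSO-dissolved compounds were serially diluted in LB broth.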

SMILES | MIC (Escherichia coli HB101 [1]) | Relative to AgNO3 (Escherichia coli HB101 [1]) | MIC (Bacillus subtilis W168 [2]) | Relative to AgNO3 (Bacillus subtilis W168 [2]) | MIC [4] | Relative to AgNO3 [4] | Diameter of the zone of growth inhibition (Bacillus subtilis W168 [5]; 5.7 × 10^0 mM) [mm] | Diameter of the zone of growth inhibition (Bacillus subtilis W168 [5]; 5.7 × 10^1 mM) [mm] | Diameter of the zone of growth inhibition (Bacillus subtilis W168 [5]; 5.7 × 10^−1 mM) | Diameter of the zone of growth inhibition (Bacillus subtilis W168 [5]; 5.7 × 10^−2 mM) | Diameter of the zone of growth inhibition (Bacillus subtilis W168 [5]; 5.7 × 10^−3 mM) | Diameter of the zone of growth inhibition (Escherichia coli HB101 [6]; 5.7 × 10^0 mM) [mm] | Diameter of the zone of growth inhibition (Escherichia coli HB101 [6]; 5.7 × 10^1 mM) [mm] | Diameter of the zone of growth inhibition (Escherichia coli HB101 [6]; 5.7 × 10^−1 mM) [mm] | Diameter of the zone of growth inhibition (Escherichia coli HB101 [6]; 5.7 × 10^−2 mM) [mm] | Diameter of the zone of growth inhibition (Escherichia coli HB101 [6]; 5.7 × 10^−3 mM) [mm] | Diameter of the zone of growth inhibition ([7]; 5.7 × 10^0 mM) [mm] | Diameter of the zone of growth inhibition ([7]; 5.7 × 10^1 mM) [mm] | Diameter of the zone of growth inhibition ([7]; 5.7 × 10^−1 mM) [mm] | Diameter of the zone of growth inhibition ([7]; 5.7 × 10^−2 mM) [mm] | other results
Cc1cc(C)c(N=C(N=C(Nc2c(C)cc(C)cc2C)C(F)(F)C(F)(F)C(F)(F)F)C(F)(F)C(F)(F)C(F)(F)F)c(C)c1 [[N{(C3F7)C(Mes)N}2]H] | 1126.88 μg/ml and 1.75 mM | 3.37 × 10^−2 | 2.69 mM (≈ 1730 µg/mL) | 5.46 × 10^−2 | 2252.38 μg/ml and 3.50 mM | 2.10 × 10^−2 | 8.0 | 9.0 | 6.0 (NZ) mm | 6.0 (NZ) mm | 6.0 (NZ) mm | 8.0 | 10.0 | 7.5 | 7.0 | 7.0 | 8.5 | 9.0 | 7.5 | 7.5 | antibacterial activity against Gram-positive organisms (in words) [3]: less effective; Diameter of the zone of growth inhibition ([7]; 5.7 × 10^−3 mM): 7.0 mm; Diameter of the zone of growth inhibition ([8]; 5.7 × 10^0 mM): 7.5 mm; Diameter of the zone of growth inhibition ([8]; 5.7 × 10^1 mM): 9.5 mm; Diameter of the zone of growth inhibition ([8]; 5.7 × 10^−1 mM): 6.0 (NZ) mm; Diameter of the zone of growth inhibition ([8]; 5.7 × 10^−2 mM): 6.0 (NZ) mm; Diameter of the zone of growth inhibition ([8]; 5.7 × 10^−3 mM): 6.0 (NZ) mm; MIC [9]: 1402.43 μg/ml and 2.18 mM; Relative to AgNO3 [9]: 8.44 × 10^−3
Fc1c(F)c(F)c(N=C(N=C(Nc2c(F)c(F)c(F)c(F)c2F)C(F)(F)C(F)(F)C(F)(F)F)C(F)(F)C(F)(F)C(F)(F)F)c(F)c1F [[N{(C3F7)C(C6F5)N}2]H] | 2643.48 μg/ml and 3.58 mM | 1.65 × 10^−2 | 1.57 μg/ml and 2.12 × 10^−3 mM | 69.34 | 1.57 μg/ml and 2.12 × 10^−3 mM | 34.71 | 39.0 | 71.0 | 47.0 mm | 22.0 mm | 10.0 mm | 9.0 | 9.5 | 9.0 | 8.5 | 7.0 | 8.0 | 9.0 | 8.0 | 8.0 | Diameter of the zone of growth inhibition (Bacillus subtilis W168 [5]; 5.7 × 10^−4 mM): 8.0 mm; Diameter of the zone of growth inhibition (Bacillus subtilis W168 [5]; 5.7 × 10^−5 mM): 6.0 (NZ) mm; Diameter of the zone of growth inhibition (Bacillus subtilis W168 [5]; 5.7 × 10^−6 mM): 6.0 (NZ) mm; Diameter of the zone of growth inhibition (Bacillus subtilis W168 [5]; 5.7 × 10^−7 mM): 6.0 (NZ) mm; Diameter of the zone of growth inhibition ([7]; 5.7 × 10^−3 mM): 7.0 mm; Diameter of the zone of growth inhibition ([8]; 5.7 × 10^0 mM): 37.5 mm; Diameter of the zone of growth inhibition ([8]; 5.7 × 10^1 mM): 75.0 mm; Diameter of the zone of growth inhibition ([8]; 5.7 × 10^−1 mM): 40.0 mm; Diameter of the zone of growth inhibition ([8]; 5.7 × 10^−2 mM): 19.0 mm; Diameter of the zone of growth inhibition ([8]; 5.7 × 10^−3 mM): 9.0 mm; Diameter of the zone of growth inhibition ([8]; 5.7 × 10^−4 mM): 6.0 (NZ) mm; Diameter of the zone of growth inhibition ([8]; 5.7 × 10^−5 mM): 6.0 (NZ) mm; Diameter of the zone of growth inhibition ([8]; 5.7 × 10^−6 mM): 6.0 (NZ) mm; Diameter of the zone of growth inhibition ([8]; 5.7 × 10^−7 mM): 6.0 (NZ) mm; antimicrobial activity (in words) [10]: Effective; MIC [9]: 2643.48 μg/ml and 3.58 mM; Relative to AgNO3 [9]: 5.14 × 10^−3
